# Measured values from patent US20030114666A1, “Antibacterial agents” (priority 2001, published 2003).
# Counter-ions that a name gives are not always drawn. Like-named read-outs stand apart in the source and are kept apart here.
# Tests used:
# E. coli B90 = test: Test A antibacterial assay, standard microtitration (MIC); type: cell-based; details: Escherichia coli
# Protocol: (§1) Test A-Antibacterial Assay
# (§2) The compounds of the present invention were tested against an assortment of Gram-negative and Gram-positive organisms using standard microtitration techniques (Cohen, et al., Antimicrob. Agents Chemother., 1985;28:766; Heifetz, et al., Antimicrob. Agents Chemother:, 1974;6:124). […]
# E. coli Tol C = test: as above; type: cell-based; details: Escherichia coli, read-out: Minimum Inhibitory Concentrations E. coli Tol C
# Protocol: as §1, §2
# S. aureus 29213 = test: as above; type: cell-based
# Protocol: as §1, §2
# S. pyogenes C203 = test: as above; type: cell-based; details: Streptococcus pyogenes
# Protocol: as §1, §2
# E. coli MC 4100 = test: as above; type: cell-based; details: Escherichia coli
# Protocol: as §1, §2
# E. faecalis RB1 = test: as above; type: cell-based; details: Enterococcus faecalis
# Protocol: as §1, §2
# N. gonorrhoeae 2693 = test: Test D cross resistance antibacterial assay (MIC); type: cell-based, Neisseria gonorrhoeae; details: relative to MIC against N. g. 2637
# Protocol: (§3) Test D-Cross Resistance Antibacterial Assay
# (§4) The compounds of the present invention were tested against an assortment of ciprofloxacin resistant E. coli and S. aureus organisms described below using standard microtitration techniques (Cohen, et al., Antimicrob. Agents Chemother., 1985;28:766; Heifetz, et al., Antimicrob. Agents Chemother., 1974;6:124). […].
# N. gonorrhoeae 2693 (N.g. 2693): Isogenic to N. gonorrhoeae 2709 containing parC QRDR mutations [P88S and E91K].
# N. gonorrhoeae 2637 = test: Test D cross resistance antibacterial assay (MIC); type: cell-based, Neisseria gonorrhoeae; details: Neisseria gonorrhoeae, 2637; parent strain, derivative of MS11; read-out: Minimum Inhibitory Concentrations N. g. 2637
# Protocol: as §3, §4
# N. gonorrhoeae 2637 (N.g. 2637) is a derivative of Neisseria gonorrhoeae MS11 containing a TAC-LAC recA to allow for control of homologous recombination [Tonjum T. et al. Molecular Microbiology 1995, 16, 451-64].
# S. aureus 2558 = test: Test D cross resistance antibacterial assay (MIC); type: cell-based; details: relative to MIC against S. aureus UC-76
# Protocol: as §3, §4
# S. aureus 2558: Isogenic to S. aureus 2554, with point mutation at position 84 of gyrA subunit.
# E. coli gyrase = E. coli gyrase (Escherichia coli, UniProt P0AES4+P0AES6); test: biochemical; details: supercoiling of relaxed pBR322, 30 minutes at 37° C.
# Sequence of E. coli gyrase (P0AES4 whole entry, one chain of several): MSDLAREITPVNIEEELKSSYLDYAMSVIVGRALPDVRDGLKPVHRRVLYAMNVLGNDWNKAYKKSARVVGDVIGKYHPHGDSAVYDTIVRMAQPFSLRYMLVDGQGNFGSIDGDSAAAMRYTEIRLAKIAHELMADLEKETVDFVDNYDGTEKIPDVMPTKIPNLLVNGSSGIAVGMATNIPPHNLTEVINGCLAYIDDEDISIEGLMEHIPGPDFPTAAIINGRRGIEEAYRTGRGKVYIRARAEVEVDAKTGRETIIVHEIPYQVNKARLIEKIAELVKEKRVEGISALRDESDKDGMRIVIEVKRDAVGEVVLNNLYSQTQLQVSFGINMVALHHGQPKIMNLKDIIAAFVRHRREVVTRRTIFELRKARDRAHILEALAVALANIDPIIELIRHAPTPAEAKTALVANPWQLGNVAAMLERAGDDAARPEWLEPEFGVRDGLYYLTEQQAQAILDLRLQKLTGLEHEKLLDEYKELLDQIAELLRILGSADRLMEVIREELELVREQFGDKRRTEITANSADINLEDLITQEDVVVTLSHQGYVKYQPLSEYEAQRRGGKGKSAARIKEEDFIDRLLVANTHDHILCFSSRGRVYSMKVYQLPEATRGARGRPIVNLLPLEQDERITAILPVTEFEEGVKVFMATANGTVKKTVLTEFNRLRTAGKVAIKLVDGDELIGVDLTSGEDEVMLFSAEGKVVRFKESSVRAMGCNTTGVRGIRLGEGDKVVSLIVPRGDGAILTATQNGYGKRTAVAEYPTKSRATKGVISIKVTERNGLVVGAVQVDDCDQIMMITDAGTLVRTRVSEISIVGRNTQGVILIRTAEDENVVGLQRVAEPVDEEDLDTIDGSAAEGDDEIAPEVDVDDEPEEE
# S. aureus 2552 = test: Test D cross resistance antibacterial assay (MIC); type: cell-based; details: for MIC: Staphylococcus aureus, 2552, upregulated norA pump, read-out: Minimum Inhibitory Concentrations S. aureus 2552; for MIC fold increase S. aureus 2552 (in parentheses): relative to MIC against S. aureus UC-76
# Protocol: as §3, §4
# S. aureus 2554 = test: Test D cross resistance antibacterial assay (MIC); type: cell-based; details: relative to MIC against S. aureus UC-76
# Protocol: as §3, §4
# S. aureus 2554: Isogenic to S. aureus 2552, with point mutation at position 80 of grlA subunit.
# S. aureus UC-76 = test: Test D cross resistance antibacterial assay (MIC); type: cell-based; details: Staphylococcus aureus, UC76; wild type sensitive laboratory strain; read-out: Minimum Inhibitory Concentrations S. aureus UC-76
# Protocol: as §3, §4
# S. aureus UC-76: Typical sensitive laboratory strain (Wild type).
# S. pyogenes = test: Test C in vivo activity, median protective dose in mice given lethal systemic infections; details: PO, lethal systemic infection with S. pyogenes
# N. gonorrhoeae 2709 = test: Test D cross resistance antibacterial assay (MIC); type: cell-based, Neisseria gonorrhoeae; details: for MIC: Neisseria gonorrhoeae, 2709, read-out: Minimum Inhibitory Concentrations N. g. 2709; for MIC fold increase N. g. 2709 (in parentheses): relative to MIC against N. g. 2637
# Protocol: as §3, §4
# N. gonorrhoeae 2709 (N.g. 2709): Isogenic to N. gonorrhoeae 2637 contains gyrA quinolone-resistant determining region (QRDR) mutations (S91F D95G).
# [1] = Gram negative, E. coli B90, read-out: Minimum Inhibitory Concentrations E. coli B90
# [2] = Gram positive, S. pyogenes C203, read-out: Minimum Inhibitory Concentrations S. pyogenes C203
# [3] = MC4100, Gram negative, E. coli MC 4100, read-out: Minimum Inhibitory Concentrations E. coli MC 4100
# [4] = Gram positive, E. faecalis RB1, read-out: Minimum Inhibitory Concentrations E. faecalis RB1
structure (smiles),measurement,setting,value
"CN[C@@H](C)[C@@H]1CCN(c2c(F)cc3c(=O)[nH]c(=O)n(C4CC4)c3c2C)C1 [Example 2, 1-Cyclopropyl-6-fluoro-8-methyl-7-[(R)-3-((S)-1-methylaminoethyl)pyrrolidin-1-yl]-1H-quinazolinedione]",MIC,E. coli B90; [1],0.5 µg/mL
same,MIC,E. coli Tol C,0.25 µg/mL
same,MIC,"S. aureus 29213; Staphylococcus aureus, Gram positive, S. aureus 29213, read-out: Minimum Inhibitory Concentrations S. aureus 29213",0.5 µg/mL
same,MIC,S. pyogenes C203; [2],0.03 µg/mL
same,MIC,E. coli MC 4100; [3],8 µg/mL
same,MIC,E. faecalis RB1; [4],0.25 µg/mL
same,MIC fold increase N. g. 2693 (in parentheses),N. gonorrhoeae 2693,(16x)
same,MIC,N. gonorrhoeae 2637,0.5 µg/mL
same,MIC fold increase S. aureus 2558 (in parentheses),S. aureus 2558,(4x)
same,IC50,E. coli gyrase,2100 nM
same,MIC,S. aureus 2552,0.5 µg/mL
same,MIC fold increase S. aureus 2552 (in parentheses),S. aureus 2552,(2x)
same,MIC fold increase S. aureus 2554 (in parentheses),S. aureus 2554,(2x)
same,MIC,S. aureus UC-76,0.25 µg/mL
same,PD50,S. pyogenes,10.8 mg/kg
same,MIC,N. gonorrhoeae 2709,4 µg/mL
same,MIC fold increase N. g. 2709 (in parentheses),N. gonorrhoeae 2709,(8x)
"CN[C@@H](C)[C@@H]1CCN(c2c(F)cc3c(=O)[nH]c(=O)n(C4CC4)c3c2OC)C1 [Example 3, 1-Cyclopropyl-6-fluoro-8-methoxy-7-[(R)-3-((S)-1-methylaminoethyl)pyrrolidin-1-yl]-1H-quinazolinedione]",MIC,E. coli B90; [1],2 µg/mL
same,MIC,E. coli Tol C,0.5 µg/mL
same,MIC,S. pyogenes C203; [2],0.13 µg/mL
same,MIC,E. coli MC 4100; [3],32 µg/mL
same,MIC,E. faecalis RB1; [4],2 µg/mL
same,melting point,,162 to 164 °C
same,IC50,E. coli gyrase,7000 nM
"Cc1c(N2CC[C@@H]([C@H](C)N)C2)c(F)cc2c(=O)[nH]c(=O)n(C3CC3)c12 [Example 4b, 7-[(R)-3-((S)-1-Aminoethyl)pyrrolidin-1-yl]-1-cyclopropyl-6-fluoro-8-methyl-1H-quinazolinedione Hydrochloride]",MIC,"E. coli B90; B90, read-out: Minimum Inhibitory Concentrations E. coli B90",0.13 µg/mL
same,MIC,E. coli Tol C,0.13 µg/mL
same,MIC,"S. aureus 29213; Staphylococcus aureus, 29213, read-out: Minimum Inhibitory Concentrations S. aureus 29213",0.25 µg/mL
same,MIC,"S. pyogenes C203; C203, read-out: Minimum Inhibitory Concentrations S. pyogenes C203",0.015 µg/mL
same,MIC,"E. coli MC 4100; MC4100, read-out: Minimum Inhibitory Concentrations E. coli MC 4100",4 µg/mL
same,MIC,"E. faecalis RB1; RB1, read-out: Minimum Inhibitory Concentrations E. faecalis RB1",0.13 µg/mL
same,MIC fold increase N. g. 2693 (in parentheses),N. gonorrhoeae 2693,(8x)
same,MIC,N. gonorrhoeae 2637,0.25 µg/mL
same,MIC fold increase S. aureus 2558 (in parentheses),S. aureus 2558,(8x)
same,IC50,E. coli gyrase,600 nM
same,MIC,S. aureus 2552,0.5 µg/mL
same,MIC fold increase S. aureus 2552 (in parentheses),S. aureus 2552,(4x)
same,MIC fold increase S. aureus 2554 (in parentheses),S. aureus 2554,(2x)
same,MIC,S. aureus UC-76,0.13 µg/mL
same,PD50,S. pyogenes,3.6 mg/kg
same,MIC,N. gonorrhoeae 2709,2 µg/mL
same,MIC fold increase N. g. 2709 (in parentheses),N. gonorrhoeae 2709,(8x)
